Assay results from patent US11684571B2, “Methods of treating eosinophilic esophagitis” (Ellodi Pharmaceuticals, L.P., priority 2016, dated 2023).

Columns and labels:
[1] = in vivo
Experimental: Incidence of treatment-emergent Adverse Events (AEs), AEs leading to withdrawal, and Serious Adverse Events (SAEs) grouped by system organ class (SOC) were calculated as needed. Clinically significant abnormal values for clinical laboratory, AM cortisol (≤138 nmol/L), urinalysis, vital signs, and electrocardiogram (ECG) findings were measured as needed.
A total of 24 subjects were enrolled and randomized to one of six sequences to receive each of the three treatments over the three periods with a 7-day washout between doses.
C. […] These subjects continued fasting for at least 4 hours post-dose. • Subjects on the “Fed” treatment (Treatment B) began a high-fat breakfast 30 minutes after an overnight fast of at least 10 hours. […] Subjects were administered 6.0 mg of ATP-1011 immediately prior to bedtime (4 hours following the standard meal).
Randomization (Day 1): Subjects were randomized to one of six sequences (See Table 15) to receive a single dose of each treatment over three periods, with a 7-day washout between doses.
Treatment Periods: For each period, subjects were in-patients for 5 days (Days 0-4, Days 7-11, Days 14-18) with PK samples collected over 72 hours following each dose. Subjects were checked-in to the CRU the evening prior to each dosing (Day 0, 7, and 14) and received treatment according to the sequence on which they were randomized on Day 1. […] All meals (AM and 4 hours prior to bedtime) were standardized for all subjects and all periods. Subjects completed these meals within 30 minutes. […] Subjects dosed HS followed the same PK schedule with PK samples scheduled relative to the bedtime dose.
Pharmacokinetics: Derived plasma-PK-parameter descriptive statistics were summarized by treatment. […] Additional comparisons were assessed between HS dosing and Fed and Fasted administration.
The following PK parameters were estimated by noncompartmental methods from plasma samples. Below limit of quantitation concentrations were treated as zero for all PK analyses. All deviations from the scheduled sampling time of 2 minutes or more were taken into consideration for evaluation of the PK parameters.
The trapezoidal rule was used to estimate the area under the curve (linear trapezoidal linear interpolation) and the terminal phase were estimated by maximizing the coefficient of determination estimated from the log-linear regression model. However, disposition parameters were not estimated for individual concentration-time profiles where the terminal log-linear phase cannot be reliably characterized.
Food Effect Analysis: The 90% confidence interval for the exponential of the difference in LSmeans between B (fed) and A (fasted) was calculated for the ln-transformed parameters (Test to Reference ratio of geometric LSmeans).
HS vs Fasted Analysis: The 90% confidence interval for the exponential of the difference in LSmeans between C (HS) and A (fasted) was calculated for the ln-transformed parameters (Test to Reference ratio of geometric LSmeans).
HS vs Fed Analysis: The 90% confidence interval for the exponential of the difference in LSmeans between C (HS) and B (fed) was calculated for the ln-transformed parameters (Test to Reference ratio of geometric LSmeans).
Treatments Administered: Study drug was administered by qualified study staff only in accordance with the procedures described in this protocol. […] All subjects were instructed to take the study drug tablet orally without water or other liquids. […]

[2] = Previous PK studies of APT-1011 (food effect, QD vs BID); assay type: in vivo, human; settings: single-dose administration
[3] = oral; cited from earlier work

SMILES: CCC(=O)O[C@]1(C(=O)SCF)[C@H](C)C[C@H]2[C@@H]3C[C@H](F)C4=CC(=O)C=C[C@]4(C)[C@@]3(F)[C@@H](O)C[C@@]21C [FP, Fluticasone propionate]
- AUC0-24, geometric LSmean ([1]; human, 6 mg): 0.367351 ng·h/mL
- AUCinf, geometric LSmean ([1]; human, 6 mg): 0.915302 ng·h/mL
- AUClast, geometric LSmean ([1]; human, 6 mg): 0.789234 ng·h/mL
- Cmax, geometric LSmean ([1]; human, 6 mg): 0.0313 ng/mL
- maximum peak exposure, lower than morning-fast [1]: 19%
- between-subject variability (CV % Geo mean) of FP AUC(0-24h) [2]: > 55%
- expected systemic bioavailability [3]: ~1%
